Experimental data: patent US6906175B2, “Production of adenine nucleotide translocator (ANT), novel ANT ligands and screening assays therefor” (priority 1998, dated 2005)

Columns and labels:
[1] = molecular target: T1, bovine mitochondria (ANT) (Bos taurus, UniProt P02722); experiment: 125I-compound 24 competition binding (Tube Assay), beef heart mitochondria
T1 construct: from tissue; host or cells: bovine heart mitochondria
T1 sequence (P02722 2-298 limits assumed): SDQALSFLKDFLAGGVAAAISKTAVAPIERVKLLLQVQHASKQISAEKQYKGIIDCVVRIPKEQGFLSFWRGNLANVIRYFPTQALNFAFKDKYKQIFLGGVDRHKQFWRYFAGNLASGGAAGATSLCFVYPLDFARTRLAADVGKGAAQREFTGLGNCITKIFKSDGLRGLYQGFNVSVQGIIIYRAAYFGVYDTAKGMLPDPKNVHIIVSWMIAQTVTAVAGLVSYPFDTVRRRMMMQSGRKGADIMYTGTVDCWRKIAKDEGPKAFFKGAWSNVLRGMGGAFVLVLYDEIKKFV
Experimental: Bovine mitochondria were prepared as follows: Essentially all of the fat and cholesterol […] was removed from two bovine hearts which were then cut into 1-inch cubes. The cubes were ground in a meat grinder using the fine setting. Three hundred (300) […] portions of the ground heart were weighed out and, to each was added 400 ml of Isolation Buffer (IB; 250 mM sucrose, 1 mM sodium succinate, 0.2 mM K^+EDTA, 10 mM Tris-base, pH 7.8). (All buffers were filter sterilized, and column buffers were degassed, and, unless otherwise noted, all steps were carried out at 0 to 4° C. on ice or in pre-cooled rotors and centrifuges.) The preparations were mixed in a blender two times for 15 seconds on high setting and, in between and after blends, the pH was adjusted to 7.8 with 2M Tris-base. The homogenate was centrifuged for 20 minutes at 1,200×g, and the supernatant was poured through two layers of cheese cloth and adjusted to pH 7.8 with 2M Tris-base. The supernatant was then centrifuged for 30 minutes at […]. The supernatant was decanted, and the buff-colored outer pellet was dislodged with about 10 ml of IB and discarded. The brown inner pellet (heavy mitochondria) was resuspended in IB (about 10 ml per pellet). The pellets were homogenized in a glass-teflon homogenizer (2 passes at high drill speed). Samples were combined and centrifuged for 30 minutes at 11,000×g. The supernatant was decanted, and the pellets were resuspended in 60 ml of IB per 900 gm of ground heart. This centrifugation step was repeated and the pellets were finally resuspended in IB (60 ml per 900 gm of ground heart). One kilogram of beef heart typically yields about one (1) gram of mitochondria
The mitochondrial preparations were divided into aliquots (typically, 50μl for T. ni mitochondria or 20 μl for bovine mitochondria) and then either used directly in assays or flash frozen and stored at −80° C. The total protein content in the mitochondrial preparations was determined using the enhanced protocol (30 minutes at 60° C.; see http://www.ruf.rice.edu/˜bioslabs/methods/protein/BCA.html) of the bicinchoninic acid (BCA) assay (available in kit form from Pierce, Rockford, Ill.).
In the “Tube Assay,” mitochondria (from about 1 to 10 μg of total protein) were resuspended in 100 μl of Tris-KCl buffer with 0.1% BSA, pH 7.4. ^125I-labeled compound 24 (Example 11) was added to a final concentration of 0.5 nM. When used, competitors were added at these concentration ranges: unlabeled atractyloside or compound 24 final concentration from 5 nM to 10 μM; unlabeled ADP (a lower affinity competitor) was added at a final concentration of 500 nM to 1 mM.
The reaction mixes were incubated on ice for 60 minutes and then pelleted by centrifugation (approximately 16,000×g) for 11 minutes at 4° C.
Unbound ^125I-compound 24 was removed by aspiration. The pellets were contact-washed with Tris-KCl buffer, pH 7.4, and recentrifuged. The resultant pellets were aspirated and the radioactivity (dpm) in each was determined by gamma counting.

[2] = molecular target: T2, His-tagged huANT3 (Homo sapiens, UniProt P12236); experiment: 125I-compound 24 competition binding to recombinant His-tagged huANT3 immobilized on Ni beads; design: made in house; host or cells: baculovirus-infected Trichoplusia ni cells; mitochondria solubilized and captured on Ni-agarose beads (Qiagen); conditions: His-tagged huANT3 on Ni-agarose beads, 1 hour at 4° C.; FIG. 19
T2 sequence (P12236 1-298): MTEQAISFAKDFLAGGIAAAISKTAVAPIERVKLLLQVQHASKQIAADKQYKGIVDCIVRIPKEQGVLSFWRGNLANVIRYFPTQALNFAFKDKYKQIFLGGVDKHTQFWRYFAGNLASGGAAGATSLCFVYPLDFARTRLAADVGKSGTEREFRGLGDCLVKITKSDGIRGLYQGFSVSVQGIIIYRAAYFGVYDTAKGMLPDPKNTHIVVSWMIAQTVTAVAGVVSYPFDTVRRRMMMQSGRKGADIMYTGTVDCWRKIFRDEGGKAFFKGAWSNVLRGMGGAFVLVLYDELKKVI
Experimental: Competitive binding assays were also performed using recombinant His-tagged huANT3 (see Example 3) immobilized on Ni beads (FIG. 19) instead of mitochondria. To prepare the bead-immobilized huANT3, mitochondria from T. ni cells infected with a baculovirus expressing huANT3 (see Example 3) were solubilized with 0.5% O-glucopyranoside in the presence of 0.5 nM ^125I-compound 24 Ni-agarose beads (Qiagen, Hilden, Germany), and various concentrations of ATR or BKA as unlabeled competitors. After 1 hour at 4° C., the beads were washed and radioactivity that remained associated with the beads was counted.

Row | SMILES | competitive inhibition of 125I-compound 24 binding (in words) ([1]; FIGS. 11, 13, 16) | competitive inhibition of 125I-compound 24 binding (in words) [2] | IC50 ([1]; 0.5 nM 125I-compound 24, FIG. 18, read-out: IC50, competitive inhibition of 125I-compound 24 binding) [µM]
1 | CO[C@H](C/C=C\C=C\CC/C=C/C[C@H](C)/C=C/C(=C\C(=O)O)CC(=O)O)/C(C)=C\C=C(/C)C(=O)O [BKA, bongkrekic acid] | effectively displaced labeled compound 24, albeit with a slightly lower affinity than unlabeled compound 24 | effectively compete with compound 24 | 
2 | CC(C)CC(=O)OC1C(OC2CC(C(=O)O)C3CCC45CC(CCC4C3(C)C2)C(C)C5O)OC(CO)C(OS(=O)(=O)O)C1OS(=O)(=O)O (stereo not drawn) [compound 5, Dihydroatractyloside] |  |  | ~3.3
